From patent US20250268903A1, “RXFP1 AGONISTS” (BRISTOL-MYERS SQUIBB COMPANY, priority 2021, published 2025) come the findings set out here.

This test addresses T1, human RXFP1 (Homo sapiens, UniProt Q9HBX9).
T1 construct: expressed in transfected cells
T1 sequence (Q9HBX9 1-757): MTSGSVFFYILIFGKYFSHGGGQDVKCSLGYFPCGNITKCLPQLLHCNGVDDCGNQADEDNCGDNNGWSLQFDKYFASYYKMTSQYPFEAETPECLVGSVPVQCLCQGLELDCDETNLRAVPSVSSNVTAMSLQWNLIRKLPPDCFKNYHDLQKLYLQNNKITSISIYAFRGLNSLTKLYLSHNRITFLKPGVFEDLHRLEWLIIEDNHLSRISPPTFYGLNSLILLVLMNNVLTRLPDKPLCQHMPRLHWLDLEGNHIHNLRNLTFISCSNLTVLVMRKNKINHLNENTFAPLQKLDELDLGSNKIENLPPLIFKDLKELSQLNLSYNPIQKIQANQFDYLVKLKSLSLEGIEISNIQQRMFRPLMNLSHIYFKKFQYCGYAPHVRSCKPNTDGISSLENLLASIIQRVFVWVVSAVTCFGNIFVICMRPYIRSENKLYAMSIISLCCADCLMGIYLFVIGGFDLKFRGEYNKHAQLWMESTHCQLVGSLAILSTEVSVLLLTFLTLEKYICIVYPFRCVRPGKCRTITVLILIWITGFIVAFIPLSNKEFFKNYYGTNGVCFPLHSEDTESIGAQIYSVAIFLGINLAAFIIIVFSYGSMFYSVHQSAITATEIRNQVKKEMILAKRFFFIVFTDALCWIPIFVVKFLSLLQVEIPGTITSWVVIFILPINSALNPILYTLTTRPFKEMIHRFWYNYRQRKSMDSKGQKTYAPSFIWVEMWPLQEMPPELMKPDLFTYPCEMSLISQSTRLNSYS
Nature of the test: hRXFP1 HEK293 cAMP assay (HTRF). The format is cell-based. The following applies: HEK293 cells stably expressing human RXFP1, 30 min at room temperature. The procedure: RXFP1 Cyclic Adenosine Monophosphate (cAMP) Assays. […] Cells were dissociated and suspended in assay buffer. The assay buffer was HBSS buffer (with calcium and magnesium) containing 20 mM HEPES, 0.05% BSA, and 0.5 mM IBMX. Cells (3000 cells per well, except 1500 cell per well for HEK293 cells stably expressing human RXFP1) were added to 384-well Proxiplates (Perkin-Elmer). Cells were immediately treated with test compounds in DMSO (2% final) at final concentrations in the range of 0.010 nM to 50 μM. Cells were incubated for 30 min at room temperature. The level of intracellular cAMP was determined using the HTRF HiRange cAMP assay reagent kit (Cisbio) according to manufacturer's instructions. Solutions of cryptate conjugated anti-cAMP and d2 fluorophore-labelled cAMP were made in a supplied lysis buffer separately. Upon completion of the reaction, the cells were lysed with equal volume of the d2-cAMP solution and anti-cAMP solution. […] The potency and activity of a compound to […] cAMP production was then determined by fitting to a 4-parametric logistic equation from a plot of cAMP level versus compound concentrations.
A general note: cAMP levels reflect the balance of adenylyl cyclase and phosphodiesterase activity.

On to `COc1ccc(C(=O)N(C)CCS(C)(=O)=O)cc1C(=O)N[C@H]1[C@@H](C(=O)Nc2ccc(F)c(C(F)(F)F)c2)[C@H]2CC[C@@H]1/C2=C\C1CC1` [Example 250, N3-[(1R,2R,3S,4R,7Z)-7-(cyclopropyl-methylidene)-3-{[4-fluoro-3-(trifluoromethyl)phenyl]carbamoyl}bicyclo[2.2.1]heptan-2-yl]-N1-(2-methane-sulfonylethyl)-4-methoxy-N1-methylbenzene-1,3-dicarboxamide], for which the EC50 worked out at 0.0349 µM. As for `COc1ccc(CCCO)cc1C(=O)N[C@H]1[C@@H](C(=O)NCC(C)(C)C)[C@H]2CC[C@@H]1/C2=C\C1CC1` [Example 270, (1R,2S,3R,4R,7Z)-7-(cyclopropylmethyl-idene)-N-(2,2-dimethylpropyl)-3-[5-(3-hydroxypropyl)-2-methoxybenzamido] bicyclo[2.2.1]heptane-2-carboxamide], the figure is 0.685 µM; as for `COc1ccc(S(=O)(=O)N2CCN3C(=O)CCC3C2)cc1C(=O)N[C@H]1[C@@H](C(=O)Nc2ccc(F)c(C(F)(F)F)c2)[C@H]2CC[C@@H]1/C2=C\C(F)(F)F` (stereo partly drawn) [Example 210, (1R,2S,3R,4R,7Z)-N-[4-fluoro-3-(trifluoromethyl)phenyl]-3-[2-methoxy-5-({6-oxo-octabydropyrrolo [1,2-a]piperazin-2-yl}sulfonyl)benzamido]-7-(2,2,2-trifluoroethylidene) bicyclo[2.2.1] heptane-2-carboxamide], 0.237 µM. Turning to `COc1ccc(COC2CCC(OCc3ccccc3)CC2)cc1C(=O)N[C@@H]1C2CCC(/C2=C/C2CC2)[C@@H]1C(=O)Nc1ccc(F)c(C(F)(F)F)c1` (single isomer, unassigned) [Example 23], the EC50 turned out to be 0.993 µM. This EC50 lies about 4.2-fold higher than the previous one. As for `COc1ccc(C23CCC(C(C)(C)O)(CC2)CC3)cc1C(=O)N[C@H]1[C@@H](C(=O)Nc2ccc(F)c(C(F)(F)F)c2)[C@H]2CC[C@@H]1/C2=C\C1CC1` (single isomer, unassigned) [Example 276], the figure is 2.6 µM. As for `COc1ccc(CCCCOC(=O)NC2CCC2)cc1C(=O)N[C@@H]1C2CCC(/C2=C/C(F)(F)F)[C@@H]1C(=O)Nc1ccc(F)c(C(F)(F)F)c1` (stereo partly drawn) [Example 102, 4-(3-{[(2R,3S,7Z)-3-{[4-fluoro-3-(trifluoromethyl)phe-nyl]carbamoyl}-7-(2,2,2-trifluoroethylidene)bi-cyclo[2.2.1]heptan-2-yl]carbamoyl}-4-methoxyphenyl)butyl N-cyclobutylcarbamate], the figure is 0.439 µM; as for `COc1ccc(COc2ccccc2)cc1C(=O)N[C@@H]1C2CCC(/C2=C/C(F)(F)F)[C@@H]1C(=O)Nc1ccc(F)c(C(F)(F)F)c1` (stereo partly drawn) [Example 20, (2S,3R,7Z)-N-[4-fluoro-3-(trifluoromethyl)phe-nyl]-3-[2-methoxy-5-(phenoxymethyl)ben-zamido]-7-(2,2,2-trifluoroethylidene)bi-cyclo[2.2.1]heptane-2-carboxamide], 0.142 µM. `COc1cc(F)c(O[C@H]2CC[C@](C)(C(=O)O)CC2)cc1C(=O)N[C@H]1[C@@H](C(=O)NCC2(C)CCC2)[C@H]2CC[C@@H]1/C2=C\C1CC1` [Example 377, (1R,4r)-4-(5-(((1R,2R,3S,4R,Z)-7-(cyclopropyl-methylene)-3-(((1-methylcyclobutyl)methyl)carbamoyl)bicyclo[2.2.1]heptan-2-yl)carbamoyl)-2-fluoro-4-methoxyphenoxy)-1-methylcyclohexane-1-carboxylic acid] yielded a concentration for a half-maximal effect (EC50) of 0.059 µM. As for `COCc1ncn(Cc2ccc(OC)c(C(=O)N[C@H]3[C@@H](C(=O)Nc4ccc(F)c(C(F)(F)F)c4)[C@H]4CC[C@@H]3/C4=C\C3CC3)c2)n1` [Example 296, (1R,2S,3R,4R,7Z)-7-(cyclopropyl-methylidene)-N-[4-fluoro-3-(trifluoromethyl)phenyl]-3-(2-methoxy-5-{[3-(methoxymethyl)-1H-1,2,4-triazol-1-yl]methyl}benzamido) bicyclo[2.2.1] heptane-2-carboxamide], the figure is 0.107 µM; as for “4-(3-{[(2R,3S,7Z)- 3-{[4-fluoro-3- (trifluoromethyl)phe- nyl]carbamoyl}-7- (2,2,2- trifluoroethylidene)bi- cyclo[2.2.1]heptan- 2-yl]carbamoyl}-4- methoxyphenyl)cyclo- hexyl N- phenylcarbamate [Example 54]”, 0.158 µM; as for `COc1ccc(C2CCCCC2O)cc1C(=O)N[C@@H]1C2CCC(/C2=C/C(F)(F)F)[C@@H]1C(=O)Nc1ccc(F)c(C(F)(F)F)c1` (single isomer, unassigned) [Example 58], 1.2 µM. As for `COc1ccc(C2CC2C(=O)O)cc1C(=O)N[C@@H]1C2CCC(/C2=C/C(F)(F)F)[C@@H]1C(=O)Nc1ccc(F)c(C(F)(F)F)c1` (single isomer, unassigned) [Example 63], the figure is 4.42 µM; as for `COc1cc(CN2C(=O)CNC2=O)ccc1C(=O)N[C@@H]1C2CCC(/C2=C/C(F)(F)F)[C@@H]1C(=O)Nc1ccc(F)c(C(F)(F)F)c1` (stereo partly drawn) [Example 26, (2S,3R,7Z)-3-{4-[(2,5-dioxoimidazolidin-1-yl)methyl]-2-methoxybenzamido}-N-[4-fluoro-3-(trifluoromethyl)phe-nyl]-7-(2,2,2-trifluoroethylidene)bi-cyclo[2.2.1]heptane-2-carboxamide], 1.38 µM.

As for `COc1ccc(C2CC3(CC(NC(=O)OC(C)(C)C)C3)C2)cc1C(=O)NC1C2CCC(/C2=C/C(F)(F)F)[C@@H]1C(=O)Nc1ccc(F)c(C(F)(F)F)c1` (stereo partly drawn) [Example 153, tert-butyl N-[6-(3-{[(2R,3S,7Z)-3-{[4-fluoro-3-(trifluoromethyl)phe-nyl]carbamoyl}-7-(2,2,2-trifluoroethylidene)bi-cyclo[2.2.1]heptan-2-yl]carbamoyl}-4-methoxyphenyl)spiro [3.3]heptan-2-yl]carbamate], the concentration for a half-maximal effect (EC50) was found to be 1.62 µM. As for `COc1cc2c(cc1C(=O)N[C@H]1[C@@H](C(=O)Nc3ccc(F)c(C(F)(F)F)c3)[C@H]3CC[C@@H]1/C3=C\C(F)(F)F)CCC2` [Example 273, [(1R,2R,3S,4R,7Z)-3-{[4-fluoro~3-(trifluoromethyl)phenyl]carbamoyl}-7-(2,2,2-trifluoroethylidene)bicyclo[2.2.1]heptan-2-yl]-6-methoxy-2,3-dihydro-IH-indene-5-carboxamide], the figure is 3.44 µM; as for `COc1ccc(/C=C(/C)C(=O)N2CCC(O)CC2)cc1C(=O)N[C@H]1[C@@H](C(=O)Nc2ccc(F)c(C(F)(F)F)c2)[C@H]2CC[C@@H]1/C2=C\C(F)(F)F` [Example 319], 1.12 µM. As for `COc1ccc(C(=O)NC(C)(C)CO)cc1C(=O)N[C@H]1[C@@H](C(=O)Nc2ccc(F)c(C(F)(F)F)c2)[C@H]2CC[C@@H]1/C2=C\C1CC1` [Example 239, N3-[(1R,2R,3S,4R,7Z)-7-(cyclopropyl-methylidene)-3-{[4-fluoro-3-(trifluoromethyl)phenyl]carbamoyl}bicyclo[2.2.1]heptan-2-yl]-N1-(1-hydroxy-2-methylpropan-2-yl)-4-methoxybenzene-1,3-dicarboxamide], the figure is 0.0278 µM; as for `COc1ccc(/C=C/C(=O)N2CCCC2)cc1C(=O)N[C@H]1[C@@H](C(=O)Nc2ccc(F)c(C(F)(F)F)c2)[C@H]2CC[C@@H]1/C2=C\C(F)(F)F` [Example 303, (1R,2S,3R,4R,7Z)-N-[4-fluoro-3-(trifluoromethyl)phenyl]-3-{2-methoxy-5-[(1E)-3-oxo-3-(pyrrolidin-1-yl)prop-1-en-1-yl]benzamido}-7-(2,2,2-trifluoroethylidene) bicyclo[2.2.1] heptane-2-carboxamide], 0.0779 µM; as for `COc1ccc(C#CCCCCOC(=O)NC2CCC2)cc1C(=O)N[C@@H]1C2CCC(/C2=C/C(F)(F)F)[C@@H]1C(=O)Nc1ccc(F)c(C(F)(F)F)c1` (stereo partly drawn) [Example 81, 6-(3-{[(2R,3S,7Z)-3-{[4-fluoro-3-(trifluoromethyl)phe-nyl]carbamoyl}-7-(2,2,2-trifluoroethylidene)bi-cyclo[2.2.1]heptan-2-yl]carbamoyl}-4-methoxyphenyl)hex-5-yn-1-yl N-cyclobutylcarbamate], 0.373 µM. As for `COc1ccc(CCCNC(=O)[C@H](C)O)cc1C(=O)N[C@@H]1C2CCC(/C2=C/C(F)(F)F)[C@@H]1C(=O)Nc1ccc(F)c(C(F)(F)F)c1` (some centres unmarked) [Example 114], the figure is 0.457 µM.

What is called EC50 is the concentration giving half of the maximal effect.
